The source of these data is patent US20140322193A1, “Therapies for Disorders of the Cornea and Conjunctiva” (priority 2011, published 2014).

The pIC50 is −log10 of the IC50, conventionally taken in molar units.

One series concerns CBA/J mice. In words: Mouse BTX-B dry eye model, corneal fluorescein staining (corneal ulceration). To be noted: for Corneal fluorescein staining, MEAN, DAY 7: 7 days after BTX-B injection; for Corneal fluorescein staining, MEAN, DAY 7 / Corneal fluorescein staining, MEAN, DAY 14: eye drops twice daily in Refresh Celluvisc (A-438079 20 μM, BBG 20 μM, oxATP 300 μM), grade 0 to 4 scale; for Corneal fluorescein staining, MEAN, DAY 14: 14 days after BTX-B injection; for Corneal fluorescein staining, MEAN, DAY 0: day 0, prior to BTX-B injection (baseline), grade on 0 to 4 scale of Table 2; for Effect on corneal fluorescein staining (in words): days 7 and 14, chosen dose, b.i.d. eye drops. Type of series: in vivo.

The next series concerns the target T1, mouse P2X7 receptor (Mus musculus, UniProt Q9Z1M0).
T1 sequence (Q9Z1M0 1-595): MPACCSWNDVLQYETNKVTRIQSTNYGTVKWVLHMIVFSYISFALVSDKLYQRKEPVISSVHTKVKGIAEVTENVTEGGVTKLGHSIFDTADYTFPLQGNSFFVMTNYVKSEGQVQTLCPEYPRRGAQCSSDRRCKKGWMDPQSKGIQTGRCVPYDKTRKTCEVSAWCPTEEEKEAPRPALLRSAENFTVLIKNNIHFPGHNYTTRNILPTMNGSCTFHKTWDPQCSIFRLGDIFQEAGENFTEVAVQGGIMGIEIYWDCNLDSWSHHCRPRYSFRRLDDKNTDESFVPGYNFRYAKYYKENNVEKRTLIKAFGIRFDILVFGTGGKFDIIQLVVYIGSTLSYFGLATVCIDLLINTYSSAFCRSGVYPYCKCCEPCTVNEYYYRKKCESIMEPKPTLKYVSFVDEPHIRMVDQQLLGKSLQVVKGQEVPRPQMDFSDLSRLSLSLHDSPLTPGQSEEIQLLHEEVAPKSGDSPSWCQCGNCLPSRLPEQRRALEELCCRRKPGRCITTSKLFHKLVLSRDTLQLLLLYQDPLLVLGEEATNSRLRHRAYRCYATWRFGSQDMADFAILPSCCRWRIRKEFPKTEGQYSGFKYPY
The conditions noted are these: British Journal of Pharmacology 2009 157:1203; cited from earlier work.

Series [1] in a line: Preservation of 1 μM BBG ophthalmic composition in containers at 60° C. for 2 days. The conditions noted are these: 1 μM BBG in BSS, PET, polypropylene, polyethylene and glass containers. Type of series: physicochemical. The protocol: BSS Sterile Irrigating Solution is obtained from Alcon Laboratories, Ft. Worth, Tex. BBG is obtained from Sigma Aldrich, St. Louis, Mo. With moderate stirring in a homomixer, 856 mg of BBG is added to 1 liter of BSS at room temperature. The mixture is then stirred until the BBG is completely in solution. This solution is a 1 mM stock solution. One ml of the stock solution is then added to one liter of BSS to yield the ophthalmic composition, which is 1 μM BBG in BSS. The ophthalmic composition is filtered through a membrane filter (0.45 μm pore diameter, Millipore), filled in a 15 mL polyethylene terephthalate eye drop container, a polypropylene container, a polyethylene container, and a glass container and preserved at 60° C. for 2 days. The amount of BBG from each container is measured before and after preservation.

pIC50: −log10 of the molar value. Entries after “also recorded” stand apart in the source; their conditions may differ.

On to `Clc1cccc(-c2nnnn2Cc2cccnc2)c1Cl` [A-438079], for which, in the series with CBA/J mice, the “Corneal fluorescein staining, MEAN, DAY 7” value is 1.70; the “Corneal fluorescein staining, MEAN, DAY 14” value was determined as 2.70; the “Corneal fluorescein staining, MEAN, DAY 0” value amounted to 0.00; the “Effect on corneal fluorescein staining (in words)” value (shortened to “Effect”) is on record as “did not attenuate fluorescein staining”.

Consider `COc1ccc(CC(=O)NC(N=C(NC#N)Nc2cccc3ncccc23)C(C)(C)C)cc1OC` (centres unmarked) [A-740003], for which, at mouse P2X7 receptor, the pIC50 is approximately 6.00.

On to `CCOc1ccc(Nc2ccc(/C(=C3C=C/C(=[N+](/CC)Cc4cccc(S(=O)(=O)[O-])c4)C=C/3C)c3ccc(N(CC)Cc4cccc(S(=O)(=O)[O-])c4)cc3C)cc2)cc1.[Na+]` [BBG, Coomassie Brilliant Blue G], for which, in the series with CBA/J mice, the “Corneal fluorescein staining, MEAN, DAY 7” value came to 1.50; the “Corneal fluorescein staining, MEAN, DAY 14” value is 2.00; the “Corneal fluorescein staining, MEAN, DAY 0” value was determined as 0.00; the “Effect” value is listed as “did not attenuate fluorescein staining”. Further, in series [1], the “Degradation of active ingredient after preservation” value is reported as “little degradation”.

As for `Nc1ncnc2c1ncn2[C@@H](C=O)O[C@@H](C=O)COP(=O)(O)OP(=O)(O)OP(=O)(O)O` [oxATP, periodate oxidized ATP], in the series on CBA/J mice, the “Corneal fluorescein staining, MEAN, DAY 7” value turned out to be 0.00; the “Corneal fluorescein staining, MEAN, DAY 14” value is 0.00; the “Corneal fluorescein staining, MEAN, DAY 0” value is 0.00; the “Effect” value is recorded as “completely prevented the fluorescein staining; also recorded: remarkably effective in preventing pathology”.
